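Cultured in 96-well plates, cells were exposed to test compound for 48 hours across five concentrations. Definition used: TGI = concentration required for complete inhibition of growth.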
How the values were obtained:
Experiment in all cases: NCI-60 cell line screen, 48 h
786-0 renal = system: 786-0 renal
A498 renal = system: A498 renal
A549 NSCLC = system: A549 NSCLC
ACHN renal = system: ACHN renal
CAKI-1 renal = system: CAKI-1 renal
CCRF-CEM leukemia = system: CCRF-CEM leukemia
COLO 205 colon = system: COLO 205 colon
DLD-1 colon = system: DLD-1 colon
DMS 114 small cell lung = system: DMS 114 small cell lung
DMS 273 small cell lung = system: DMS 273 small cell lung
EKVX NSCLC = system: EKVX NSCLC
HCC-2998 colon = system: HCC-2998 colon
HCT-116 colon = system: HCT-116 colon
HCT-15 colon = system: HCT-15 colon
HL-60(TB) leukemia = system: HL-60(TB) leukemia
HOP-18 NSCLC = system: HOP-18 NSCLC
HOP-62 NSCLC = system: HOP-62 NSCLC
HOP-92 NSCLC = system: HOP-92 NSCLC
HT29 colon = system: HT29 colon
IGROV1 ovarian = system: IGROV1 ovarian
K-562 leukemia = system: K-562 leukemia
KM12 colon = system: KM12 colon
KM20L2 colon = system: KM20L2 colon
LOX IMVI melanoma = system: LOX IMVI melanoma
LXFL 529 NSCLC = system: LXFL 529 NSCLC
M14 melanoma = system: M14 melanoma
M19-MEL melanoma = system: M19-MEL melanoma
MALME-3M melanoma = system: MALME-3M melanoma
MOLT-4 leukemia = system: MOLT-4 leukemia
NCI-H226 lung = system: NCI-H226 lung
NCI-H23 lung = system: NCI-H23 lung
NCI-H460 lung = system: NCI-H460 lung
NCI-H522 lung = system: NCI-H522 lung
OVCAR-3 ovarian = system: OVCAR-3 ovarian
OVCAR-4 ovarian = system: OVCAR-4 ovarian
OVCAR-5 ovarian = system: OVCAR-5 ovarian
OVCAR-8 ovarian = system: OVCAR-8 ovarian
RPMI-8226 leukemia = system: RPMI-8226 leukemia
RXF 393 renal = system: RXF 393 renal
RXF-631 renal = system: RXF-631 renal
SF-268 CNS = system: SF-268 CNS
SF-295 CNS = system: SF-295 CNS
SF-539 CNS = system: SF-539 CNS
SK-MEL-2 melanoma = system: SK-MEL-2 melanoma
SK-MEL-28 melanoma = system: SK-MEL-28 melanoma
SK-MEL-5 melanoma = system: SK-MEL-5 melanoma
SK-OV-3 ovarian = system: SK-OV-3 ovarian
SN12C renal = system: SN12C renal
SNB-19 CNS = system: SNB-19 CNS
SNB-75 CNS = system: SNB-75 CNS
SNB-78 CNS = system: SNB-78 CNS
SW-620 colon = system: SW-620 colon
TK-10 renal = system: TK-10 renal
U251 CNS = system: U251 CNS
UACC-257 melanoma = system: UACC-257 melanoma
UACC-62 melanoma = system: UACC-62 melanoma
UO-31 renal = system: UO-31 renal
XF 498 CNS = system: XF 498 CNS
SR leukemia = system: SR leukemia

Structure (SMILES): CC(=O)Nc1ccccc1S(=O)(=O)c1ccccc1
- TGI (786-0 renal): > 100 µM
- TGI (A498 renal): > 100 µM
- TGI (A549 NSCLC): > 100 µM
- TGI (ACHN renal): > 100 µM
- TGI (CAKI-1 renal): > 100 µM
- TGI (CCRF-CEM leukemia): > 100 µM
- TGI (COLO 205 colon): > 100 µM
- TGI (DLD-1 colon): > 100 µM
- TGI (DMS 114 small cell lung): > 100 µM
- TGI (DMS 273 small cell lung): > 100 µM
- TGI (EKVX NSCLC): > 100 µM
- TGI (HCC-2998 colon): > 100 µM
- TGI (HCT-116 colon): > 100 µM
- TGI (HCT-15 colon): > 100 µM
- TGI (HL-60(TB) leukemia): > 100 µM
- TGI (HOP-18 NSCLC): > 100 µM
- TGI (HOP-62 NSCLC): > 100 µM
- TGI (HOP-92 NSCLC): > 100 µM
- TGI (HT29 colon): > 100 µM
- TGI (IGROV1 ovarian): > 100 µM
- TGI (K-562 leukemia): > 100 µM
- TGI (KM12 colon): > 100 µM
- TGI (KM20L2 colon): > 100 µM
- TGI (LOX IMVI melanoma): > 100 µM
- TGI (LXFL 529 NSCLC): > 100 µM
- TGI (M14 melanoma): > 100 µM
- TGI (M19-MEL melanoma): > 100 µM
- TGI (MALME-3M melanoma): > 100 µM
- TGI (MOLT-4 leukemia): > 100 µM
- TGI (NCI-H226 lung): > 100 µM
- TGI (NCI-H23 lung): > 100 µM
- TGI (NCI-H460 lung): > 100 µM
- TGI (NCI-H522 lung): > 100 µM
- TGI (OVCAR-3 ovarian): > 100 µM
- TGI (OVCAR-4 ovarian): > 100 µM
- TGI (OVCAR-5 ovarian): 5.65 µM
- TGI (OVCAR-8 ovarian): > 100 µM
- TGI (RPMI-8226 leukemia): > 100 µM
- TGI (RXF 393 renal): > 100 µM
- TGI (RXF-631 renal): > 100 µM
- TGI (SF-268 CNS): > 100 µM
- TGI (SF-295 CNS): > 100 µM
- TGI (SF-539 CNS): > 100 µM
- TGI (SK-MEL-2 melanoma): > 100 µM
- TGI (SK-MEL-28 melanoma): > 100 µM
- TGI (SK-MEL-5 melanoma): > 100 µM
- TGI (SK-OV-3 ovarian): > 100 µM
- TGI (SN12C renal): > 100 µM
- TGI (SNB-19 CNS): > 100 µM
- TGI (SNB-75 CNS): > 100 µM
- TGI (SNB-78 CNS): > 100 µM
- TGI (SW-620 colon): > 100 µM
- TGI (TK-10 renal): > 100 µM
- TGI (U251 CNS): > 100 µM
- TGI (UACC-257 melanoma): > 100 µM
- TGI (UACC-62 melanoma): > 100 µM
- TGI (UO-31 renal): > 100 µM
- TGI (XF 498 CNS): > 100 µM

Structure (SMILES): Cc1nc2c(o1)C(=Nc1ccccc1)c1ccccc1C2=Nc1ccccc1
- TGI (786-0 renal): > 100 µM
- TGI (A498 renal): > 100 µM
- TGI (A549 NSCLC): > 100 µM
- TGI (ACHN renal): > 100 µM
- TGI (CAKI-1 renal): > 100 µM
- TGI (CCRF-CEM leukemia): > 100 µM
- TGI (COLO 205 colon): > 100 µM
- TGI (DLD-1 colon): > 100 µM
- TGI (DMS 114 small cell lung): > 100 µM
- TGI (DMS 273 small cell lung): > 100 µM
- TGI (EKVX NSCLC): > 100 µM
- TGI (HCC-2998 colon): > 100 µM
- TGI (HCT-116 colon): > 100 µM
- TGI (HCT-15 colon): 32 µM
- TGI (HL-60(TB) leukemia): > 100 µM
- TGI (HOP-18 NSCLC): > 100 µM
- TGI (HOP-62 NSCLC): > 100 µM
- TGI (HOP-92 NSCLC): > 100 µM
- TGI (HT29 colon): > 100 µM
- TGI (IGROV1 ovarian): > 100 µM
- TGI (K-562 leukemia): > 100 µM
- TGI (KM12 colon): > 100 µM
- TGI (KM20L2 colon): > 100 µM
- TGI (LOX IMVI melanoma): > 100 µM
- TGI (LXFL 529 NSCLC): > 100 µM
- TGI (M14 melanoma): > 100 µM
- TGI (M19-MEL melanoma): > 100 µM
- TGI (MALME-3M melanoma): > 100 µM
- TGI (MOLT-4 leukemia): > 100 µM
- TGI (NCI-H23 lung): > 100 µM
- TGI (NCI-H460 lung): > 100 µM
- TGI (NCI-H522 lung): > 100 µM
- TGI (OVCAR-3 ovarian): > 100 µM
- TGI (OVCAR-4 ovarian): > 100 µM
- TGI (OVCAR-5 ovarian): > 100 µM
- TGI (OVCAR-8 ovarian): > 100 µM
- TGI (RPMI-8226 leukemia): > 100 µM
- TGI (RXF 393 renal): > 100 µM
- TGI (RXF-631 renal): > 100 µM
- TGI (SF-268 CNS): > 100 µM
- TGI (SF-295 CNS): > 100 µM
- TGI (SF-539 CNS): > 100 µM
- TGI (SK-MEL-2 melanoma): > 100 µM
- TGI (SK-MEL-5 melanoma): > 100 µM
- TGI (SK-OV-3 ovarian): > 100 µM
- TGI (SN12C renal): > 100 µM
- TGI (SNB-19 CNS): > 100 µM
- TGI (SNB-75 CNS): > 100 µM
- TGI (SNB-78 CNS): > 100 µM
- TGI (SW-620 colon): 41.3 µM
- TGI (TK-10 renal): > 100 µM
- TGI (U251 CNS): > 100 µM
- TGI (UACC-257 melanoma): > 100 µM
- TGI (UACC-62 melanoma): > 100 µM
- TGI (UO-31 renal): > 100 µM
- TGI (XF 498 CNS): > 100 µM

Structure (SMILES): COC(=O)/C(=N\NC(N)=O)C(C(=O)C(=O)Nc1ccccc1C(=O)OC)c1nc2ccc(C(=O)c3ccccc3)cc2[nH]c1=O (stereo unspecified)
- TGI (786-0 renal): > 100 µM
- TGI (A498 renal): > 100 µM
- TGI (A549 NSCLC): > 100 µM
- TGI (ACHN renal): > 100 µM
- TGI (CAKI-1 renal): > 100 µM
- TGI (CCRF-CEM leukemia): > 100 µM
- TGI (DLD-1 colon): > 100 µM
- TGI (DMS 114 small cell lung): > 100 µM
- TGI (DMS 273 small cell lung): > 100 µM
- TGI (EKVX NSCLC): > 100 µM
- TGI (HCC-2998 colon): > 100 µM
- TGI (HCT-116 colon): > 100 µM
- TGI (HCT-15 colon): > 100 µM
- TGI (HL-60(TB) leukemia): > 100 µM
- TGI (HOP-18 NSCLC): > 100 µM
- TGI (HOP-62 NSCLC): > 100 µM
- TGI (HOP-92 NSCLC): > 100 µM
- TGI (HT29 colon): > 100 µM
- TGI (IGROV1 ovarian): > 100 µM
- TGI (K-562 leukemia): > 100 µM
- TGI (KM12 colon): > 100 µM
- TGI (KM20L2 colon): > 100 µM
- TGI (LOX IMVI melanoma): > 100 µM
- TGI (LXFL 529 NSCLC): > 100 µM
- TGI (M14 melanoma): > 100 µM
- TGI (M19-MEL melanoma): > 100 µM
- TGI (MALME-3M melanoma): > 100 µM
- TGI (MOLT-4 leukemia): > 100 µM
- TGI (NCI-H226 lung): > 100 µM
- TGI (NCI-H23 lung): > 100 µM
- TGI (NCI-H460 lung): > 100 µM
- TGI (NCI-H522 lung): > 100 µM
- TGI (OVCAR-3 ovarian): > 100 µM
- TGI (OVCAR-4 ovarian): > 100 µM
- TGI (OVCAR-5 ovarian): > 100 µM
- TGI (OVCAR-8 ovarian): > 100 µM
- TGI (RPMI-8226 leukemia): > 100 µM
- TGI (RXF-631 renal): > 100 µM
- TGI (SF-268 CNS): > 100 µM
- TGI (SF-295 CNS): > 100 µM
- TGI (SF-539 CNS): > 100 µM
- TGI (SK-MEL-2 melanoma): > 100 µM
- TGI (SK-MEL-28 melanoma): > 100 µM
- TGI (SK-MEL-5 melanoma): > 100 µM
- TGI (SK-OV-3 ovarian): > 100 µM
- TGI (SN12C renal): > 100 µM
- TGI (SNB-19 CNS): > 100 µM
- TGI (SNB-75 CNS): > 100 µM
- TGI (SNB-78 CNS): > 100 µM
- TGI (SR leukemia): > 100 µM
- TGI (SW-620 colon): > 100 µM
- TGI (TK-10 renal): > 100 µM
- TGI (U251 CNS): > 100 µM
- TGI (UACC-257 melanoma): > 100 µM
- TGI (UACC-62 melanoma): > 100 µM
- TGI (UO-31 renal): > 100 µM
- TGI (XF 498 CNS): > 100 µM

From PubChem BioAssay (NCI)
